The nature of the data set: gradient 5% acetonitrile 3 min, to 50% in 2 min, to 85% in 15 min, held 3 min, 100 µL/min. The note with it: column: Zorbax Extend-C18 2.1 x 50 mm; eluents: water / acetonitrile, 0.1% formic acid. In a few lines: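 In both positive and negative ionization mode, a quadrupole time-of-flight mass spectrometer coupled to HPLC analyzed pure standards run in mixtures of ~100 molecules. The Zorbax Extend-C18 column (2.1 × 50 mm, 1.8 μm) was operated at 100 μL/min with water and acetonitrile, each containing 0.1% formic acid. The dead volume was 40 μL and the dwell volume 900 μL. Retention time came from adduct peaks that were computationally picked and individually inspected by hand.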
In the case of `O=C(CSc1nnc(NC(=O)COc2ccc(Cl)cc2)s1)NCc1ccco1`, the RP-LC retention time was 768 s.
Molecule `O=C(Cn1c(=O)c2cc(-c3ccco3)nn2c2ncccc21)NCCc1ccccc1` gave an RP-LC retention time of 797 s.
Molecule `COc1ccc(-n2cc(C(=O)O)c3c2C(C(F)(F)F)CC(=O)N3)c(OC)c1` (centres undefined) showed an RP-LC retention time of 731 s.
On to `O=C(CC(c1ccccc1)c1ccccc1)NCCCn1ncccc1=O`, for which the RP-LC retention time turned out to be 702 s.
Molecule `Cc1ccc(N2CC(c3nc(-c4ccccn4)no3)CC2=O)cc1Cl` (centres undefined) yielded an RP-LC retention time of 838 s.
As for `Cc1ccc(-c2nnc(Cc3nc(C(C)C)no3)o2)cc1C`, the RP-LC retention time was 967 s.
Under `Cc1nc(-c2csc(S(=O)(=O)N3CCCC(C(=O)Nc4ccc(Cl)cc4C)C3)c2)no1` (centres undefined) stands 1040 s; under `CCCC(=O)Nc1ccc(-c2nc(-c3ccc(Cl)cc3)no2)cc1`, 1240 s; under `Cc1nc(C2(C)CCN(S(=O)(=O)c3ccc(C(C)(C)C)cc3)CC2)no1`, 1080 s.
The molecule `COc1cc2c(cc1OC)C1C(C(=O)Nc3ccc4c(c3)OCCO4)c3ccccc3C(=O)N1CC2` (centres undefined) registered an RP-LC retention time of 772 s.
The molecule `O=C(C1CCN(c2cnn(Cc3ccccc3)c(=O)c2)C1)N1CCCC1` (centres undefined) returned an RP-LC retention time of 683 s.
`CCc1cc(=O)n(CC(=O)Nc2cc(Cl)ccc2C)c(N2CCOCC2)n1` showed an RP-LC retention time of 771 s.
Consider `COc1ccc(-c2cn3c(CC(=O)N4CCN(c5ncccn5)CC4)csc3n2)cc1OC`, for which the RP-LC retention time was determined as 639 s.
As for `Cc1ccc(C(=O)NCc2nn(C)c3ccccc23)cc1`, the RP-LC retention time came to 810 s.
In turn, `C=CCSc1nnc(Cc2cc(=O)[nH]c(=O)[nH]2)n1-c1ccc(Cl)cc1` had an RP-LC retention time of 624 s.
Molecule `CCn1c(=O)sc2cc(S(=O)(=O)N3CCC(C(=O)Nc4ccc(F)cc4F)CC3)ccc21` displayed an RP-LC retention time of 921 s.
Regarding `O=c1ccc(N2CCC(NS(=O)(=O)c3ccc(Cl)s3)CC2)nn1CC1CC1`, the RP-LC retention time is 875 s.
In turn, `CCn1cc(-c2nc(C(=O)NCc3cccc(C)c3)cs2)c2cccnc21` returned an RP-LC retention time of 1060 s.
On to `COc1cc(N2C=C(C#N)S(=O)(=O)c3ccc(Cl)cc32)c(OC)cc1Cl`, for which the RP-LC retention time came to 1050 s.
`CCOC(=O)C(C)Oc1ccc2c(c1)O/C(=C\c1cc(Cl)cc3c1OCOC3)C2=O` (centres undefined) gave an RP-LC retention time of 1160 s.
`COC(=O)c1ccc(OC(=O)N(C)c2ccccc2)cc1` came in with an RP-LC retention time of 879 s.
In the case of `CCCNC(=O)c1cccc(-c2nc3cccnc3n2CCC)c1`, the RP-LC retention time turned out to be 705 s.
For `COc1ccccc1-c1noc(-c2nc(C)no2)n1`, the RP-LC retention time came to 877 s.
Molecule `Cc1oc(C2CCN(C(=O)c3cc4ccccc4[nH]3)CC2)nc1C(=O)N1CCSCC1` came in with an RP-LC retention time of 847 s.
The molecule `COc1ccc(N2CCN(S(=O)(=O)c3cc(-c4nc(C(C)C)cs4)sc3C)CC2)cc1` came in with an RP-LC retention time of 1340 s.
Under `CC1=NN(c2ccccc2)C(=O)C1C(=O)c1ccccc1Br` (centres undefined) stands 1040 s; under `CCc1nccn1Cc1nc(-c2ccccc2F)no1`, 603 s.
In turn, `O=C(COc1ccc2ccccc2c1)NCC1CCN(c2ncccn2)CC1` showed an RP-LC retention time of 762 s.
Take `Cc1ccc(NC(=O)Cn2c(=O)c(CCC(=O)NC3CCCC3)nc3ccccc32)cc1C`: the RP-LC retention time was 863 s.
The value for `CC(C)NC(=O)c1ccc(OCC2CCCN(C(=O)C(C)C)C2)cc1` (centres undefined) was 787 s; that for `Cn1cc(S(=O)(=O)N2CCCCC2)cc1C(=O)N1CCN(c2cccc(Cl)c2)CC1` was 1050 s.
`COCc1cn(C2CN(C(=O)c3sc(C)nc3C)C2)nn1` yielded an RP-LC retention time of 589 s.
Under `O=C(NCc1cccs1)c1ccc(-n2nc(N3CCCC3)ccc2=O)cc1` stands 765 s; under `Cc1sc(NC(=O)Cc2csc(-c3ccccc3)n2)nc1-c1ccccc1`, 1160 s.
The molecule `Cc1cc(C)c2c(N3CCCC3)nc(C(=O)N(C)Cc3ccccc3)nc2n1` gave an RP-LC retention time of 654 s.
Turning to `COc1ccc(-n2c(=O)c3sccc3n(Cc3nc(-c4ccccc4)no3)c2=O)cc1`, the RP-LC retention time was determined as 953 s.
`COc1ccc(-c2nnc(-c3cc(S(=O)(=O)N4CCCCCC4)ccc3Cl)o2)cc1` displayed an RP-LC retention time of 1150 s.
As for `O=C(Cc1cccs1)N1CCC(Nc2ncnc3c2CCC3)CC1`, the RP-LC retention time was 590 s.
The value for `O=S(=O)(c1ccc(-c2nnc(C3CC3)o2)o1)N1CCN(C2CCCCC2)CC1` was 642 s; that for `O=C(Cc1ccccc1Br)NC1CCN(c2cc(-c3ccccc3)[nH]n2)C1` (centres undefined) was 665 s; that for `CC(C)c1nncn1C1CCN(S(=O)(=O)Cc2ccc(Cl)cc2)CC1` was 742 s.
On to `COc1ccc(-n2c(=O)n(C)c(=O)c3cc(C(=O)Nc4ccc(C(N)=O)cc4)cnc32)cc1`, for which the RP-LC retention time amounted to 668 s.
`CCNC(=O)C1CCN(S(C)(=O)=O)c2cc(Cl)ccc2O1` (centres undefined) had an RP-LC retention time of 736 s.
Under `CCCCNC(=O)c1cnn(-c2ccc(-c3nc(C)no3)cn2)c1C` stands 853 s.
For `O=C(CCn1nnc2cc(-c3noc(COc4ccc(F)cc4)n3)ccc21)N1CCCCCC1`, the RP-LC retention time is 990 s.
On to `CCOC(=O)c1nnc2c(-c3ccc(F)cc3)c(C)nn2c1C`, for which the RP-LC retention time worked out at 986 s.
In turn, `CC1(C(=O)NCc2ccc(F)cc2)Cn2cnc(C(=O)N3CCOCC3)c2C(=O)N1C1CC1` (centres undefined) came in with an RP-LC retention time of 616 s.
The value for `Cc1cc(NC(=O)C2CCN(c3cc(N4CCCC4)ncn3)CC2)ccc1F` was 693 s; that for `CC(C(=O)NCCCN1CCCCC1)n1c2ccccc2c2cnn(C)c(=O)c21` (centres undefined) was 618 s.
The value for `Cc1cc2c(N3CCCC(C(=O)NCc4ccccc4Br)C3)nccc2s1` (centres undefined) was 714 s; that for `Cc1csc(NC(=O)C2CC(=O)N(c3n[nH]c4cccc(F)c34)C2)n1` (centres undefined) was 664 s.
Molecule `CNC(=O)c1ccc(-c2nc3cc(NS(=O)(=O)c4ccc5c(c4)CCCC5)ccc3n2C)cc1` gave an RP-LC retention time of 685 s.
`Cc1sc2ccn(Cc3ccc(F)cc3)c(=O)c2c1C(=O)NC1CCCC1` yielded an RP-LC retention time of 919 s.
In turn, `COc1ccc(N2CCN(C(=O)c3cn4c(n3)COCC4)CC2)cc1` came in with an RP-LC retention time of 598 s.
For `CC(CCNC(=O)c1cc(S(=O)(=O)N2CCCC2)ccc1Cl)N1CCCC1` (centres undefined), the RP-LC retention time is 601 s.
Turning to `CN(C)C(=O)c1ccc(-n2nc(C(F)(F)F)c3c2CCCC3)cc1`, the RP-LC retention time worked out at 882 s.
`CCc1ccc(NC(=O)Cn2nc3nc(N4CCCC4)ccn3c2=O)cc1` displayed an RP-LC retention time of 678 s.
Turning to `COc1cc(NC(=O)Nc2cccc(-c3nccnc3N3CCCC3)c2)cc(OC)c1`, the RP-LC retention time came out at 596 s.
`CCN1c2ccc(C)cc2C(=O)NC12CCN(C(=O)c1cc(OC)cc(OC)c1)CC2` gave an RP-LC retention time of 828 s.
In the case of `CCCn1c(=O)c(-c2ccc(C(=O)NCCOC)cc2)nc2cccnc21`, the RP-LC retention time stood at 796 s.
The molecule `Cc1c(Cl)cccc1NC(=O)N1CCc2nc[nH]c2C1` returned an RP-LC retention time of 592 s.
`Cc1cc(C)n(Cc2nc(-c3ccc(NC(=O)c4ccsc4)cc3)oc2C)n1` showed an RP-LC retention time of 940 s.
For the molecule `COc1ccc(-c2nc3cnccn3c2Nc2ccc(Br)cc2)cc1OC`, the RP-LC retention time was determined as 884 s.
`CC(C)n1c(=O)sc2cc(S(=O)(=O)N3CCC(C(=O)Nc4cccc(Cl)c4)CC3)ccc21` yielded an RP-LC retention time of 1060 s.
The molecule `O[C@@H]1CCCCC1N1CCC(c2ccccc2)CC1` (some centres undefined) yielded an RP-LC retention time of 702 s.
As to `Cc1ccc(F)cc1NC(=O)Cn1nc2c(Oc3cccc(F)c3)nccn2c1=O`, the RP-LC retention time was found to be 829 s.
`Cn1c(N2CCCN(C(=O)CCn3c(C4CCCCC4)nc4ccccc43)CC2)cc(=O)n(C)c1=O` had an RP-LC retention time of 610 s.
In turn, `CCOC(=O)N1CCN(C(=O)Cn2c(-c3cccn(C)c3=O)nc3ccccc32)CC1` yielded an RP-LC retention time of 553 s.
Under `Cn1c(C(=O)N2CCCC(C(=O)NCCc3ccc(S(N)(=O)=O)cc3)C2)cc2sccc21` (centres undefined) stands 693 s.
The molecule `NC(=O)c1cnc(-c2ccc(Cl)cc2)n(CC(=O)N2CCCc3ccccc32)c1=O` returned an RP-LC retention time of 986 s.
Under `C=CCN(CC=C)S(=O)(=O)c1ccc(C(=O)Nc2nnc(CSC)o2)cc1` stands 764 s; under `CNC(=O)c1cc2c(C)nn(-c3cccc(F)c3)c2s1`, 865 s.
On to `O=C1NCCCn2cc(S(=O)(=O)Nc3ccccc3)cc21`, for which the RP-LC retention time stood at 630 s.
`CC(C)n1cnc(S(=O)(=O)N2CCC(C(=O)NCc3ccc(N(C)C)cc3)CC2)c1` registered an RP-LC retention time of 589 s.
Consider `O=C(NC1CCCCC1)N1CC(c2nnc(-c3ccncc3)o2)C2(CCOCC2)C1` (centres undefined), for which the RP-LC retention time was determined as 621 s.
`CCc1cccc(NS(=O)(=O)c2cn(C(C)C)c3ncccc23)c1`: the RP-LC retention time amounted to 946 s.
Under `Cc1ccc2[nH]cc(CCNC(=O)c3ccc(N4CCCC4)c(S(=O)(=O)N4CCCC4)c3)c2c1` stands 998 s.
In turn, `COc1ccc(-c2nc3cnccn3c2NCCC(=O)Nc2ccc3c(c2)OCO3)cc1` had an RP-LC retention time of 673 s.
`CCOc1ccc(-n2cc(C(=O)OCC(=O)OC(C)(C)C)c3ccccc3c2=O)cc1` returned an RP-LC retention time of 1220 s.

The values are drawn from the METLIN SMRT retention time set (Domingo-Almenara et al. 2019).
